What was measured:
[1] = test system: human patients experiencing osteoarthritic knee joint pain; test: Safety assessments (TEAEs, SAEs, procedural pain ratings) after single intra-articular injection of capsaicin with cooling and lidocaine, Example 1; type: in vivo; settings: for All TEAEs / Arthralgia / Hepatic enzyme increased / Influenza / Joint effusion / Nasopharyngitis / Upper respiratory tract infection: through 24 weeks
Protocol: (§1) Human patients experiencing osteoarthritic knee joint pain received either placebo, a 0.5 mg intra-articular injection of capsaicin into the osteoarthritic knee joint, or a 1.0 mg intra-articular injection of capsaicin into the osteoarthritic knee joint. Transient burning sensation due to administration of capsaicin was attenuated by administering capsaicin according to the following procedure: (i) applying for a duration of about 15 minutes a cooling article to an exterior surface of a human patient's knee presenting with osteoarthritic knee joint pain, wherein the cooling article was a Breg cooling wrap cooled by circulating ice-cold water, (ii) administering by injection into the intra-articular space of the joint of the knee a 15 mL aliquot of a 2% w/w lidocaine solution in saline, (iii) applying for a duration of about 30 minutes a cooling article to an exterior surface of the knee, wherein the cooling article was a Breg cooling wrap cooled by circulating ice-cold water, (iv) administering by injection into the intra-articular space of the joint of the knee a 4 mL aliquot of a solution containing water, polyethylene glycol having a number-average molecular weight of about 300 g/mol, and for patients receiving capsaicin a dose of capsaicin in an amount of 0.5 mg or 1.0 mg, and (v) applying a cooling article to an exterior surface of the knee for a duration of at least about 30 minutes (and up to 60) minutes upon patient request), wherein the cooling article was a Breg cooling wrap cooled by circulating ice-cold water. Further description of experimental procedures and results are provided below:
(§2) Human patients aged 45-80 years with chronic knee osteoarthritis, stable moderate to severe pain, and intolerability to analgesics were randomized to receive a single intra-articular injection of placebo into the osteoarthritic knee, a single intra-articular injection of a 0.5 mg dose of capsaicin into the osteoarthritic knee, or a single intra-articular injection of a 1.0 mg dose of capsaicin into the osteoarthritic knee.
as §1, with “The test article (i.e., placebo” for “Human patients experiencing osteoarthritic knee joint pain received either placebo, a 0.5 mg intra-articular injection of capsaicin into the osteoarthritic knee joint,”, “capsaicin)” for “a 1.0 mg intra-articular injection of capsaicin into the osteoarthritic knee joint. Transient burning sensation due to administration of capsaicin”, “administered” for “attenuated by administering capsaicin”, “60” for “60)”, “water.” for “water. Further description of experimental procedures and results are provided below:”
Safety assessments included treatment-emergent adverse events (TEAEs), serious AEs (SAEs), laboratory abnormalities, and procedural pain ratings (none, mild, moderate, moderately severe, severe). The procedure pain ratings characterize the extent of transient burning sensation experienced by patients due to administration of capsaicin.

[2] = test system: osteoarthritic knee joint pain; test: WOMAC B stiffness subscale and WOMAC C function subscale, Example 1; type: in vivo, human; settings: 1.0 mg dose; through week 16
Protocol: as §2, with “knee. […]” for “knee.”
Patients completed Patient Global Impression of Change (PGIC; change vs baseline in index knee on 7-point scale; 1=very much improved; 7=very much worse, with scores of 1 or 2 indicating significant improvement) and Patient-specific Functional Scale (PSFS; rate≤3 important activities difficult to perform due to index knee pain on 0-10 scale; 0-able to perform; 10=unable to perform) at scheduled visits. Odds ratios for PGIC scores were calculated with chi-square tests. Changes in Western Ontario and McMaster Universities Osteoarthritis Index (WOMAC) B stiffness subscale and WOMAC C function subscale through week 24 were also assessed. PSFS, WOMAC B, and WOMAC C scores were evaluated using a mixed model for repeated measures. […]

[3] = test system: osteoarthritic knee joint pain; test: Patient-specific Functional Scale (PSFS), Example 1; type: in vivo, human
Protocol: as §2
as §1, with “The test article (i.e., placebo” for “Human patients experiencing osteoarthritic knee joint pain received either placebo, a 0.5 mg intra-articular injection of capsaicin into the osteoarthritic knee joint,”, “capsaicin)” for “a 1.0 mg intra-articular injection of capsaicin into the osteoarthritic knee joint. Transient burning sensation due to administration of capsaicin”, “administered” for “attenuated by administering capsaicin”, “60” for “60)”, “water.” for “water. Further description of experimental procedures and results are provided below:”
(§3) Patients completed Patient Global Impression of Change (PGIC; change vs baseline in index knee on 7-point scale; 1=very much improved; 7=very much worse, with scores of 1 or 2 indicating significant improvement) and Patient-specific Functional Scale (PSFS; rate≤3 important activities difficult to perform due to index knee pain on 0-10 scale; 0-able to perform; 10=unable to perform) at scheduled visits. Odds ratios for PGIC scores were calculated with chi-square tests. Changes in Western Ontario and McMaster Universities Osteoarthritis Index (WOMAC) B stiffness subscale and WOMAC C function subscale through week 24 were also assessed. PSFS, WOMAC B, and WOMAC C scores were evaluated using a mixed model for repeated measures. Statistical tests were 2-sided (alpha, P=0.10).

[4] = test system: osteoarthritic knee joint pain; test: Patient Global Impression of Change (PGIC), Example 1; type: in vivo, human
Protocol: as §2
as §1, with “The test article (i.e., placebo” for “Human patients experiencing osteoarthritic knee joint pain received either placebo, a 0.5 mg intra-articular injection of capsaicin into the osteoarthritic knee joint,”, “capsaicin)” for “a 1.0 mg intra-articular injection of capsaicin into the osteoarthritic knee joint. Transient burning sensation due to administration of capsaicin”, “administered” for “attenuated by administering capsaicin”, “60” for “60)”, “water.” for “water. Further description of experimental procedures and results are provided below:”
as §3

[5] = test system: pain due to an intermetatarsal neuroma; test: Average walking pain due to intermetatarsal neuroma (NPRS) after two doses of trans-capsaicin, Example 3; type: in vivo, human; settings: 200 μg
Protocol: Twenty-seven adult, human patients experiencing pain due to an intermetatarsal neuroma were treated by administering a first dose of trans-capsaicin (200 μg of trans-capsaicin) and then, after at least 11 weeks, administered a second dose of trans-capsaicin (200 μg of trans-capsaicin). Patients rated their average walking pain due to the intermetatarsal neuroma on a Numeric Pain Rating Scale (NPRS), where pain is characterized by the patient on a scale of zero to ten (with zero being “no pain”, and ten being “worst possible pain”). Patients rated their average walking pain due to the intermetatarsal neuroma on (i) just prior to receiving the injection of trans-capsaicin and (ii) four (4) weeks after receiving each injection of trans-capsaicin. Patients reported a reduction in average walking pain due to the intermetatarsal neuroma when measured at four weeks after injection of trans-capsaicin for each administration of trans-capsaicin. […]
Pain due to the intermetatarsal neuroma was evaluated by having patients rate their average walking pain due to the intermetatarsal neuroma on a Numeric Pain Rating Scale (NPRS), where pain is characterized by the patient on a scale of zero to ten (with zero being “no pain”, and ten being “worst possible pain”). […]

[6] = 2 hours after injection, all groups (capsaicin or placebo)
[7] = either 0.5 mg or 1.0 dose (n = 105)

SMILES: COc1cc(CNC(=O)CCCCC=CC(C)C)ccc1O [Capsaicin, N-[(4-hydroxy-3-methoxyphenyl)methyl]-8-methylnon-6-enamide]
- All TEAEs ([1]; 0.5 mg dose IA (n = 34)): 16 (47) n (%)
- Arthralgia ([1]; 0.5 mg dose IA (n = 34)): 3 (8.8) n (%)
- Hepatic enzyme increased ([1]; 0.5 mg dose IA (n = 34)): 2 (5.9) n (%)
- Influenza ([1]; 0.5 mg dose IA (n = 34)): 1 (2.9) n (%)
- Joint effusion ([1]; 0.5 mg dose IA (n = 34)): 3 (8.8) n (%)
- Nasopharyngitis ([1]; 0.5 mg dose IA (n = 34)): 1 (2.9) n (%)
- Upper respiratory tract infection ([1]; 0.5 mg dose IA (n = 34)): 2 (5.9) n (%)
- All TEAEs ([1]; 1.0 mg dose IA (n = 71)): 21 (30) n (%)
- Arthralgia ([1]; 1.0 mg dose IA (n = 71)): 5 (7.0) n (%)
- Hepatic enzyme increased ([1]; 1.0 mg dose IA (n = 71)): 1 (1.4) n (%)
- Influenza ([1]; 1.0 mg dose IA (n = 71)): 2 (2.8) n (%)
- Joint effusion ([1]; 1.0 mg dose IA (n = 71)): 0 n (%)
- Nasopharyngitis ([1]; 1.0 mg dose IA (n = 71)): 2 (2.8) n (%)
- Upper respiratory tract infection ([1]; 1.0 mg dose IA (n = 71)): 3 (4.2) n (%)
- patients reporting mild pain (procedural pain rating) [1, 6]: 39%
- patients reporting no pain (procedural pain rating) [1, 6]: 50%
- Incidence of TEAEs ([1]; capsaicin 0.5 mg dose): 47%
- TEAEs mild in severity ([1]; capsaicin 0.5 mg dose): 29%
- TEAEs moderate in severity ([1]; capsaicin 0.5 mg dose): 18%
- SAE ([1]; capsaicin 0.5 mg dose group, not considered treatment related): One SAE (shoulder pain from osteoarthritis)
- Incidence of TEAEs ([1]; capsaicin 1.0 mg dose): 30%
- TEAEs mild in severity ([1]; capsaicin 1.0 mg dose): 20%
- TEAEs moderate in severity ([1]; capsaicin 1.0 mg dose): 9.9%
- arthralgia (TEAE) ([1]; capsaicin 1.0 mg dose): 7.0%
- arthralgia (TEAE) ([1]; capsaicin regardless of dose): 7.6%
- upper respiratory tract infection (TEAE) ([1]; capsaicin regardless of dose): 4.8%
- All TEAEs [1, 7]: 37 (35) n (%)
- Arthralgia [1, 7]: 8 (7.6) n (%)
- Hepatic enzyme increased [1, 7]: 3 (2.9) n (%)
- Influenza [1, 7]: 3 (2.9) n (%)
- Joint effusion [1, 7]: 3 (2.9) n (%)
- Nasopharyngitis [1, 7]: 3 (2.9) n (%)
- Upper respiratory tract infection [1, 7]: 5 (4.8) n (%)
- tolerability / safety profile ([1]; single injection, 1.0 mg dose, up to 24 weeks, comparable to placebo): well tolerated
- WOMAC B score, LSMD versus placebo [2]: −2.1
- WOMAC C score, LSMD versus placebo [2]: −14.8
- PSFS: LSMD versus Placebo ([3]; 0.5 mg dose, week 4): 0.01
- PSFS: LSMD versus Placebo ([3]; 0.5 mg dose, week 8): −0.03
- PSFS: LSMD versus Placebo ([3]; 0.5 mg dose, week 12): −0.4
- PSFS: LSMD versus Placebo ([3]; 0.5 mg dose, week 16): −0.5
- PSFS: LSMD versus Placebo ([3]; 0.5 mg dose, week 24): −0.05
- PSFS: LSMD versus Placebo ([3]; 1.0 mg dose, week 4): −1.4
- PSFS: LSMD versus Placebo ([3]; 1.0 mg dose, week 8): −0.9
- PSFS: LSMD versus Placebo ([3]; 1.0 mg dose, week 12): −1.1
- PSFS: LSMD versus Placebo ([3]; 1.0 mg dose, week 16): −0.9
- PSFS: LSMD versus Placebo ([3]; 1.0 mg dose, week 24): −0.5
- PSFS: ability to perform activities versus placebo ([3]; 1.0 mg dose, weeks 4-16): significantly improved
- PGIC: Odds Ratio vs Placebo ([4]; 0.5 mg dose, week 4): 1.76
- PGIC: proportion of patients reporting significant improvement in the index knee ([4]; 0.5 mg dose, week 4): 58%
- PGIC: Odds Ratio vs Placebo ([4]; 0.5 mg dose, week 8): 1.89
- PGIC: Odds Ratio vs Placebo ([4]; 0.5 mg dose, week 12): 2.75
- PGIC: Odds Ratio vs Placebo ([4]; 0.5 mg dose, week 16): 2.37
- PGIC: Odds Ratio vs Placebo ([4]; 0.5 mg dose, week 24): 1.68
- PGIC: Odds Ratio vs Placebo ([4]; 1.0 mg dose, week 4): 2.34
- PGIC: proportion of patients reporting significant improvement in the index knee ([4]; 1.0 mg dose, week 4): 64%
- PGIC: Odds Ratio vs Placebo ([4]; 1.0 mg dose, week 8): 2.50
- PGIC: Odds Ratio vs Placebo ([4]; 1.0 mg dose, week 12): 2.40
- PGIC: Odds Ratio vs Placebo ([4]; 1.0 mg dose, week 16): 1.85
- PGIC: Odds Ratio vs Placebo ([4]; 1.0 mg dose, week 24): 1.64
- PGIC: likelihood of significant improvement compared with placebo ([4]; 1.0 mg dose, weeks 4, 8 and 12): greater than two-fold likelihood

SMILES: COc1cc(CNC(=O)CCCCC=CC(C)C)ccc1O [trans-capsaicin, N-[(4-hydroxy-3-methoxyphenyl)methyl]-8-methylnon-6-enamide]
- reduction in average walking pain due to the intermetatarsal neuroma (NPRS) ([5]; four weeks after first dose, vs prior to first dose): 1.6 point
- reduction in average walking pain due to the intermetatarsal neuroma (NPRS) ([5]; four weeks after second dose, vs just prior to second dose): 2.3 point
